Data set [1] has as its system thrombin receptor (LM and RA assays). In words: Activity of cyclic TRPs in the bioassays previously described (assay not specified). Format: cell-based. The settings on record: concentration tested 9 to 200 μM, differs per compound. The protocol:
(§1) The guinea pig gastric longitudinal muscle (GLM) strips and the rat thoracic aorta (RA) ring preparations were isolated as previously described 14, 15. In brief, gastric LM strips (3×10 mm), obtained from male albino Hartley strain guinea pigs were equilibrated for about 1.5 h at 37° (in an aerated (95% O2 /5% CO2) Krebs-Henseleit buffer (3 mL) of the following composition (in mM): NaCl, 118; KCl, 4.7; CaCl2, 2.5; MgCl2, 1.2; NaHCO3, 25; KH2 PO4, 1.2; and glucose, 10. The pH was maintained at 7.4. Rat gastric LM strips (3×10 mm) were obtained, as for the GLM strips, from male albino Sprague Dawley animals (250-300 g). The stomach, opened along the greater curvature, was stripped free of all mucosal tissue under microscopic visualization and longitudinal tissue strips were cut exactly at right angles to the visible circular muscle bundles. Tissue strips were pre-equilibrated in the buffer described above. Each tissue was challenged twice each in succession at timed intervals with 50 nM carbachol (20 min intervals), 1 μM angiotensin-II (1 h intervals) and 95 μM (60 μg/mL) receptor pentapeptide (P5, SFLLR, SEQ ID NO: 2) (25 min intervals for GLM; 30-35 min for RLM); tissues were washed at 10 and 15 min after the additions of agonists. Contractions were monitored isometrically using Statham force-displacement transducers. […]
Thoracic RA rings (2 mm×3 mm), obtained from male albino Sprague Dawley rats, were equilibrated (about 1 h, 37° ) in the same organ bath buffer as was used for the LM tissue, and tension (baseline 1.0 g) was monitored isometrically using either Statham or Grass force-displacement transducers. […] Therefore, to construct concentration-effect curves and to normalize data between individual preparations, the relaxation responses to P5 and to the other TRPs were expressed as a percentage of the relaxation caused by 215 μM (137 μg/mL) of P5 (% P5215). For purposes of comparison, the same stock solutions of an individual peptide were evaluated, relative to P5, in both the RA and LM bioassays. […]
Cyclic TRPs were evaluated using the bioassays previously described.

A short description of data set [2]: HPLC analysis of peptide recovered from RLM and RA organ bath solution. The following applies: just after peak of tissue response (5-10 min). Format: in vitro ADME, rat. The protocol:
As illustrated in FIG. 4 (lanes C and D), the organ bath solution withdrawn from either a RLM or RA assay (30-60 μg/mL P5 or 47.5 to 95 μM), just after the peak of tissue response, was subjected to analysis by HPLC and compared with a standard solution of P5 made immediately before HPLC analysis either in buffer alone or in buffer that had been exposed to tissue under the conditions of a bioassay. […] In FIG. 4, the peptide degradation products would have been eluted at retention times earlier than those of either P5 (17.33 min) or P5--NH2 (16.83 min).

Data set [3] deals with T1, thrombin receptor (guinea pig gastric longitudinal muscle strips) (Cavia porcellus, UniProt A0A286XH07).
T1 sequence (A0A286XH07 24-426): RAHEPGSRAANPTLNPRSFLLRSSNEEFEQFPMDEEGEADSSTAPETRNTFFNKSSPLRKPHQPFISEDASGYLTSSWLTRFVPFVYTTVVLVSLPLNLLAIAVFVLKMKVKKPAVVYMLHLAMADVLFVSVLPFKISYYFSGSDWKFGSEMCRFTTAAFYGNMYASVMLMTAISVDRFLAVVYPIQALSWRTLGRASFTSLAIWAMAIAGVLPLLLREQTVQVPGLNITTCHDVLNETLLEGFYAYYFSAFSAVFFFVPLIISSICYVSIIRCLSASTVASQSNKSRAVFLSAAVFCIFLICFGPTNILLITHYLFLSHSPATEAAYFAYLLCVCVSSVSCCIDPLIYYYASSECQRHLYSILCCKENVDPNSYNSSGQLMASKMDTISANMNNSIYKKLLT
The following applies: for Relative potency (REC) GLM: average concentration ratio relative to P5 causing equal contractile response (REC = EC TRP ÷ EC P5). The protocol: (§2) The guinea pig gastric longitudinal muscle (GLM) strips and the rat thoracic aorta (RA) ring preparations were isolated as previously described 14, 15. In brief, gastric LM strips (3×10 mm), obtained from male albino Hartley strain guinea pigs were equilibrated for about 1.5 h at 37° (in an aerated (95% O2 /5% CO2) Krebs-Henseleit buffer (3 mL) of the following composition (in mM): NaCl, 118; KCl, 4.7; CaCl2, 2.5; MgCl2, 1.2; NaHCO3, 25; KH2 PO4, 1.2; and glucose, 10. The pH was maintained at 7.4. Rat gastric LM strips (3×10 mm) were obtained, as for the GLM strips, from male albino Sprague Dawley animals (250-300 g). The stomach, opened along the greater curvature, was stripped free of all mucosal tissue under microscopic visualization and longitudinal tissue strips were cut exactly at right angles to the visible circular muscle bundles. Tissue strips were pre-equilibrated in the buffer described above. Each tissue was challenged twice each in succession at timed intervals with 50 nM carbachol (20 min intervals), 1 μM angiotensin-II (1 h intervals) and 95 μM (60 μg/mL) receptor pentapeptide (P5, SFLLR, SEQ ID NO: 2) (25 min intervals for GLM; 30-35 min for RLM); tissues were washed at 10 and 15 min after the additions of agonists. Contractions were monitored isometrically using Statham force-displacement transducers. Only tissues responding well to all three agonists were used further for the evaluation of the biological activities of P5 and other peptide agonists.

The subject of data set [4] is thrombin receptor (rat thoracic aorta rings, intact endothelium). The following applies: for Relative potency (REC) RA: average concentration ratio relative to P5 causing equal relaxation response (REC = EC TRP ÷ EC P5).
Experimental: Thoracic RA rings (2 mm×3 mm), obtained from male albino Sprague Dawley rats, were equilibrated (about 1 h, 37° ) in the same organ bath buffer as was used for the LM tissue, and tension (baseline 1.0 g) was monitored isometrically using either Statham or Grass force-displacement transducers. The presence of an intact endothelium was ascertained by monitoring a relaxation response to acetylcholine (ACh, 1 μM) in a preparation that was submaximally (EC75) contracted by 0.1 μM noradrenaline (NA) in the presence of 0.1 mM ascorbic acid (to preserve the catecholamine). Only tissues yielding a relaxation concentration-response curve between 0.01 and 10 μM acetylcholine (maximal relaxation of 70 to 90%, relative to the tension developed by 0.1 μM NA) were used for the further evaluation of the receptor-derived peptides. The assay of TRP responsiveness was done (e.g. see FIG. 1) on tissues that were precontacted with 0.1 μM NA at 30 min time intervals. Tissues were washed approx. 5 min after the application of TRPs. […] For purposes of comparison, the same stock solutions of an individual peptide were evaluated, relative to P5, in both the RA and LM bioassays. When possible, both assays were done simultaneously on the same day.
Weighed peptide samples were routinely dissolved in 50 mM phosphate buffer, pH 7.4, to yield stock solutions, from which volumes of up to 0.2 mL were added directly to the organ bath; the concentrations of all stock solutions used were verified by quantitative amino acid analysis of aliquots. Pr-P4 and Pr-P4--NH2 were dissolved in 40 mM phosphate buffer, pH 7.4, containing 20% v/v absolute ethanol (i.e. 8 Vol of the above 50 mM phosphate buffer +2 Vol. ethanol). […] Indomethacin was dissolved in ethanol, such that the final ethanol concentration in the organ bath was at or lower than 0.01% v/v; this concentration of ethanol alone had no effect on the bioassay systems.
Data set [5] has as its system thrombin receptor (gastric longitudinal muscle strips). The experiment in a line: Gastric longitudinal muscle (LM) assay, either or both GLM and RLM. Format: cell-based. The protocol: LM: Either or both GLM and RLM
as §1, with “Each tissue was challenged twice each in succession at timed intervals with 50 nM carbachol (20 min intervals), 1 μM angiotensin-II (1 h intervals) and 95 μM (60 μg/mL) receptor pentapeptide (P5, SFLLR, SEQ ID NO: 2) (25 min intervals for GLM; 30-35 min for RLM); tissues were washed at 10 and 15 min after the additions of agonists.” left out
Weighed peptide samples were routinely dissolved in 50 mM phosphate buffer, pH 7.4, to yield stock solutions, from which volumes of up to 0.2 mL were added directly to the organ bath; the concentrations of all stock solutions used were verified by quantitative amino acid analysis of aliquots. […]

Data set [6] deals with T2, thrombin receptor (rat gastric longitudinal muscle strips) (Rattus norvegicus, UniProt P26824).
T2 construct: Rat gastric LM strips (3×10 mm) were obtained; from tissue; host or cells: rat (Sprague Dawley) gastric longitudinal muscle strips
T2 sequence (P26824 22-432): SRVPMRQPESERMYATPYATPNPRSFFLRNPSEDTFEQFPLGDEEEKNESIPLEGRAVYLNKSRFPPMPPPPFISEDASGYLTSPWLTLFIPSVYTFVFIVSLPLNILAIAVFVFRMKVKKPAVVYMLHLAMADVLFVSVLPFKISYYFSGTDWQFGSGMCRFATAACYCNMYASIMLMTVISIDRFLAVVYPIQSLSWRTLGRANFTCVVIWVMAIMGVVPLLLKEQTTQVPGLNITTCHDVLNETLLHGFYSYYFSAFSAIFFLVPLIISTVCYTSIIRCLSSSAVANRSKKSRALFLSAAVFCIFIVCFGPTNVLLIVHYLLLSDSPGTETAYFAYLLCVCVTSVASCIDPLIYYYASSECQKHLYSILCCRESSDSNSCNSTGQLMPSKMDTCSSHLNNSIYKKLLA
In words: Rat gastric longitudinal muscle (RLM) strip contractile assay. Format: cell-based.
From the text: We obtained an evaluation of the potencies of the various TRPs, relative to P5, by using the linear portions of the concentration-effect curves, so as to calculate for several response levels the average ratio of concentrations (REC) of an individual TRP, relative to concentration of P5 that caused the same contractile response (i.e. REC =ECTRP .div.ECPS). […] In the RA assay, a similar approach to the estimate of relative potencies (REC S) was used, even though all agonists, except for P5--OCH3, appeared to cause equivalent maximal relaxation (FIG. 2, lower).
as §2, with “peptide agonists. For the GLM and RLM assays, concentration-effect curves for all peptides were constructed by expressing the response of each agonist as a percentage (% P595) relative to the contraction caused by 95 μM (60 μg/mL) P5 (0.9±0.1 g tension: mean ±S.E.M. for n=12 in the GLM; 1.6±0.9 g tension: mean ±S.E.M. for n=36 in the RLM).” for “peptide agonists.”
Weighed peptide samples were routinely dissolved in 50 mM phosphate buffer, pH 7.4, to yield stock solutions, from which volumes of up to 0.2 mL were added directly to the organ bath; the concentrations of all stock solutions used were verified by quantitative amino acid analysis of aliquots. Pr-P4 and Pr-P4--NH2 were dissolved in 40 mM phosphate buffer, pH 7.4, containing 20% v/v absolute ethanol (i.e. 8 Vol of the above 50 mM phosphate buffer +2 Vol. ethanol). Control aliquots of the ethanol-containing phosphate buffer alone had no effect on either of the bioassay systems. Acetylcholine, carbachol, indomethacin, noradrenaline and angiotensin-II and thrombin (human, 3000 to 4000 U/mg; 1 U/mL.perspectiveto.10 nM) were from Sigma (St. Louis, Mo.); genistein (GS) was from ICN Biochemicals, Costa Mesa, Calif. Tyrphostin (TP) (RG 50864, also designated AG213) was obtained through the courtesy of Dr. R. R. Swillo, Rhone-Poulenc Rorer (Collegeville, Pa). […] Indomethacin was dissolved in ethanol, such that the final ethanol concentration in the organ bath was at or lower than 0.01% v/v; this concentration of ethanol alone had no effect on the bioassay systems.

Data set [7] deals with platelets. The following applies: reported previously; cited from earlier work.

Residues, ends and D or L forms follow the SMILES beside them.

`CC(C)C[C@@H]1NC(=O)[C@H](Cc2ccccc2)NC(=O)[C@H](CCCNC(=N)N)NC(=O)[C@H](CC(C)C)NC1=O` (cyclo(FLLR)): in data set [1], the “Activity relative to SFLLR (SEQ ID NO:2) (P-5) (ECcyclic /ECP-5)” value came to 2.

In the case of `CC(C)C[C@H](NC(=O)[C@H](CC(C)C)NC(=O)[C@H](Cc1ccccc1)NC(=O)[C@@H](N)CO)C(=O)N[C@@H](CCCNC(=N)N)C(N)=O` [P5-NH-2, S42 FLLR46 -amide], the “Recovery of intact peptide from organ bath (HPLC)” value in data set [2] (RA organ bath) and in data set [2] (RLM organ bath) was “recovered essentially intact” in each case. In addition, the “Desensitization on repeated administration” value in data set [3] (GLM) is given as “not”. Moreover, the “Relative potency (REC) GLM” value in data set [3] is reported as 0.1. In addition, the “Agonist (relaxation) activity” value in data set [4] (RA, precontracted with 0.1 μM noradrenaline) is listed as “transient relaxation”. Also, in data set [4], the “Relative potency (REC) RA” value came to 0.1. Besides, the Desensitization entry in data set [5] is “did not”. Moreover, the “Relative potency (REC) RLM” value in data set [6] came to 0.2.

For the molecule SFALR, the “Activity in platelets” value in data set [7] is given as “little impact on the activity”.

Turning to `CC(C)C[C@H](NC(=O)[C@H](CC(C)C)NC(=O)[C@H](Cc1ccccc1)NC(=O)[C@@H](N)CO)C(=O)N[C@@H](CCCNC(=N)N)C(=O)O` [P5, S42 FLLR46, reference compound], the entries for the “Recovery of intact peptide from organ bath (HPLC)” value in data set [2] (RA organ bath) and in data set [2] (RLM organ bath) were “Quantitative recovery” and “essentially quantitative recovery”, respectively. The “Relative potency (REC) GLM” value in data set [3] worked out at 1. Also, in data set [4], the “Relative potency (REC) RA” value is 1. The “Relative potency (REC) RLM” value in data set [6] is reported as 1.

For `CC(C)C[C@@H]1NC(=O)[C@H](Cc2ccccc2)NC(=O)[C@H](CO)NC(=O)[C@H](CCCNC(=N)N)NC(=O)[C@H](CC(C)C)NC1=O`, the “Activity relative to SFLLR (SEQ ID NO:2) (P-5) (ECcyclic /ECP-5)” value in data set [1] is “not active at this concentration”.

As for `CC(C)C[C@@H]1NC(=O)[C@H](Cc2ccccc2)NC(=O)CNC(=O)[C@H](CCCNC(=N)N)NC(=O)[C@H](CC(C)C)NC1=O` (cyclo(FLLRG)), in data set [1], the “Activity relative to SFLLR (SEQ ID NO:2) (P-5) (ECcyclic /ECP-5)” value is on record as 4.
